In brackets after ≈: the same amount, converted by molar mass. Activity calls are given as the source filed them. The calls are words filed in the database; no cut-off is given here.
Experiments:
[1] = Inhibition of recombinant human farnesyltransferase using dansyl-GCVLS as substrate in presence of farnesyl pyrophosphate after 15 mins by fluorescence assay
[2] = Inhibition of Trypanosoma brucei recombinant farnesyltransferase using dansyl peptide containing GCAIM as substrate in presence of farnesyl pyrophosphate after 15 mins by fluorescence assay
Plasmodium falciparum [3] = experiment: (§1) Antiplasmodial activity against chloroquine-sensitive IEF stage of Plasmodium falciparum NF54 infected in human RBC assessed as reduction in [3H]hypoxanthine incorporation preincubated for 48 hrs followed by [3H]hypoxanthine addition measured after 24 hrs by liquid scintillation counting method; type: functional
L6 = experiment: Cytotoxicity against rat L6 cells after 72 hrs by Alamar blue assay; type: cell-based; details: L6, 72 h
Staphylococcus aureus = experiment: Antibacterial activity against Staphylococcus aureus ATCC 25923 after 24 hrs by broth microdilution method; type: functional; details: ATCC 25923, 24 h
[4] = tested on: Staphylococcus intermedius; experiment: Antibacterial activity against Staphylococcus intermedius isolate 1051997 after 24 hrs by broth microdilution method; type: functional; details: isolate 1051997, 24 h
Pseudomonas aeruginosa = experiment: Antibacterial activity against Pseudomonas aeruginosa ATCC 27853 after 24 hrs by broth microdilution method; type: functional
Escherichia coli = experiment: Antibacterial activity against Escherichia coli ATCC 25922 after 24 hrs by broth microdilution method; type: functional
[5] = Selectivity index, ratio of IC50 for rat L6 cells to IC50 for chloroquine-sensitive IEF stage of Plasmodium falciparum NF54 infected in human RBC; type: toxicity; details: read-out: Ratio IC50
Plasmodium falciparum [6] = experiment: as §1, with “chloroquine-resistant erythrocyte” for “chloroquine-sensitive IEF”, “FcM29-Cameroon” for “NF54”; type: functional

Row | SMILES | IC50 [1] [µM] | IC50 [2] [µM] | IC50 (Plasmodium falciparum [3]) [µM] | IC50 (L6; read-out: IC50) [µM] | MIC (Staphylococcus aureus) [µM] | MIC [4] [µM] | Activity (Pseudomonas aeruginosa) | Activity (Escherichia coli) | selectivity ratio [5] | IC50 (Plasmodium falciparum [6]) [µM] | IC50 (L6) [µM]
1 | CC(C)=CCC/C(C)=C/CC/C(C)=C/Cc1cc2c(cc1O)C1=C(C(=O)C3=C(C1=O)S(=O)(=O)CCN3)C(/C=C(\C)CC/C=C(\C)CCC=C(C)C)O2 (stereo not drawn) | 4.7 | 5.2 | 7.4 | 126 | > 200 | > 200 | inactive | inactive | 17 | – | –
2 | CC(C)=CCC/C(C)=C/CC/C(C)=C/Cc1cc(O)cc2c1OC(/C=C(\C)CC/C=C(\C)CCC=C(C)C)C1=C2C(=O)C2=C(C1=O)S(=O)(=O)CCN2 (stereo not drawn) | 0.17 | 0.35 | 4 | 30.6 | > 200 | > 200 | inactive | inactive | – | – | –
3 | CC(C)=CCC/C(C)=C/CC/C(C)=C/Cc1cc(O)cc2c1OC(/C=C(\C)CC/C=C(\C)CCC=C(C)C)C1=C2C(=O)C2=C(NCCS2(=O)=O)C1=O (stereo not drawn) | 1.5 | 2.9 | 2.9 | 16.7 | > 200 | > 200 | inactive | inactive | – | – | –
4 | COC1=CC(=O)C2=C(C1=O)c1cc(O)ccc1OC2/C=C(\C)CC/C=C(\C)CCC=C(C)C (stereo not drawn) | > 22.3 | > 22.3 | 20.4 | 34.3 | 25 (≈ 11.2 µg/mL) | 50 (≈ 22.4 µg/mL) | inactive | inactive | – | – | –
5 | CC(C)=CCC/C(C)=C/CC/C(C)=C/Cc1cc2c(cc1O)C1=C(C(=O)C3=C(NCCS3(=O)=O)C1=O)C(/C=C(\C)CC/C=C(\C)CCC=C(C)C)O2 (stereo not drawn) | 0.45 | 1 | 3.4 | 25.8 | > 200 | > 200 | inactive | inactive | – | – | –
6 | CC(C)=CCc1cc2c(cc1O)C1=C(C(=O)C3=C(C1=O)S(=O)(=O)CCN3)C(C=C(C)C)O2 (stereo not drawn) | 3.1 | 2.3 | 0.29 | 0.4 | > 200 | > 200 | inactive | inactive | – | – | –
7 | CC(C)=CCC/C(C)=C/Cc1cc2c(cc1O)C1=C(C(=O)C3=C(C1=O)S(=O)(=O)CCN3)C(/C=C(\C)CCC=C(C)C)O2 (stereo not drawn) | 0.054 | 0.098 | – | – | > 200 | > 200 | inactive | inactive | – | 4.39 | –
8 | CC(C)=CCC/C(C)=C/Cc1cc2c(cc1O)C1=C(C(=O)C3=C(NCCS3(=O)=O)C1=O)C(/C=C(\C)CCC=C(C)C)O2 (stereo not drawn) | 1.22 | 3.04 | – | – | > 200 | > 200 | inactive | inactive | – | > 17 | –
9 | CSCC[C@H](NC(=O)c1ccc(NC[C@@H](N)CS)cc1-c1ccccc1)C(=O)O | – | 0.01 | – | – | – | – | – | – | – | – | –
10 | CC(C)=CCC/C(C)=C/Cc1cc(O)cc2c1OC(/C=C(\C)CCC=C(C)C)C1=C2C(=O)C2=C(NCCS2(=O)=O)C1=O (stereo not drawn) | 0.14 | 0.22 | – | – | > 200 | > 200 | inactive | inactive | – | 4.56 | –
11 | CN[C@@H]1[C@H](O[C@H]2[C@H](O[C@H]3[C@H](O)[C@@H](O)[C@H](N=C(N)N)[C@@H](O)[C@@H]3N=C(N)N)O[C@@H](C)[C@]2(O)C=O)O[C@@H](CO)[C@H](O)[C@H]1O [STREPTOMYCIN] | – | – | – | – | 21.5 (≈ 12.5 µg/mL) | 10.7 (≈ 6.22 µg/mL) | – | – | – | – | –
12 | COc1cc([C@@H]2c3cc4c(cc3[C@H](O)[C@H]3COC(=O)[C@H]23)OCO4)cc(OC)c1OC [PODOFILOX] | – | – | – | – | – | – | – | – | – | – | 0.012
13 | CC(C)=CCc1cc2c(cc1O)C1=C(C(=O)C3=C(NCCS3(=O)=O)C1=O)C(C=C(C)C)O2 (stereo not drawn) | > 22 | > 22 | 4.8 | 5.2 | > 200 | > 200 | inactive | inactive | – | – | –
14 | CC(C)=CCC/C(C)=C/CC/C(C)=C/C1Oc2c(cc(O)c3c2-c2cc(O)ccc2OC3/C=C(\C)CC/C=C(\C)CCC=C(C)C)C2=C1C(=O)C=CC2=O (stereo not drawn) | 1 | 1.6 | 33.9 | 53.2 | > 200 | > 200 | inactive | inactive | – | – | –
15 | CC(C)=CCc1cc(O)cc2c1OC(C=C(C)C)C1=C2C(=O)C2=C(NCCS2(=O)=O)C1=O (stereo not drawn) | 14.7 | 19.6 | 2 | 4.2 | > 200 | > 200 | inactive | inactive | – | – | –
16 | O=C(N[C@H](CO)[C@H](O)c1ccc([N+](=O)[O-])cc1)C(Cl)Cl [CHLORAMPHENICOL] | – | – | – | – | 1.5 to 3 (≈ 0.485 to 0.969 µg/mL) | 3 to 6 (≈ 0.969 to 1.94 µg/mL) | – | – | – | – | –
17 | CC(C)=CCc1cc(O)cc2c1OC(C=C(C)C)C1=C2C(=O)C2=C(C1=O)S(=O)(=O)CCN2 (stereo not drawn) | 17.3 | > 22 | 8 | 12.8 | > 200 | > 200 | inactive | inactive | – | – | –
18 | CC(C)=CCC/C(C)=C/Cc1cc(O)cc2c1OC(/C=C(\C)CCC=C(C)C)C1=C2C(=O)C2=C(C1=O)S(=O)(=O)CCN2 (stereo not drawn) | 0.78 | 0.74 | – | – | > 200 | > 200 | inactive | inactive | – | > 17 | –
19 | CC(C)=CCC/C(C)=C/CC/C(C)=C/C1Oc2ccc(O)cc2C2=C1C(=O)C=CC2=O (stereo not drawn) | 1.7 | 3.3 | 7.2 | 23.5 | 6.25 (≈ 2.62 µg/mL) | 3.12 (≈ 1.31 µg/mL) | inactive | inactive | – | – | –
